Experiment [1] has as its target T1, Oxysterols receptor LXR-beta (Homo sapiens, UniProt P55055).
T1 sequence (P55055 whole entry): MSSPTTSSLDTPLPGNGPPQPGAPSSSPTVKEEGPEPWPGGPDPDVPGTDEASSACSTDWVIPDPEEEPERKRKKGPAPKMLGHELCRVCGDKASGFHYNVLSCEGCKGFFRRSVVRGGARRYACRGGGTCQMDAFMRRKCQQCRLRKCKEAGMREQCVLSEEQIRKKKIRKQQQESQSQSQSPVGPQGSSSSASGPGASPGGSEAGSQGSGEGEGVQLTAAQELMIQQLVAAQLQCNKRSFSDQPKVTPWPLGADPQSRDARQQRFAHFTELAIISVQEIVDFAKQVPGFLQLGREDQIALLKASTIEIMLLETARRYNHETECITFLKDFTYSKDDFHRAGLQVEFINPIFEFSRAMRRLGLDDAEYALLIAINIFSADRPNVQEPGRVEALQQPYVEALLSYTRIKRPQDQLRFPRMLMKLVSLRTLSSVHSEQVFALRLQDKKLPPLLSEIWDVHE
Description: LXR agonists, Gal4 luciferase reporter, dose response, counter-screen for ssDAF-12 agonist project, cell-based, luminescence, HEK293, S. stercoralis campaign (AID 720737). Type of experiment: functional. The conditions noted are these: read-out: IC50 (the source's name). Background: A reporter such as luciferase makes a cellular process visible.

Experiment [2] can be described thus: Luminescence-based cell-based high throughput dose response assay to identify activators of the DAF-12 from the parasite S. stercoralis (ssDAF-12). The class given is functional.
For experiment [3], the target named is T2, Bcl-2-related protein A1 (Mus musculus, UniProt Q07440).
T2 sequence (Q07440 whole entry): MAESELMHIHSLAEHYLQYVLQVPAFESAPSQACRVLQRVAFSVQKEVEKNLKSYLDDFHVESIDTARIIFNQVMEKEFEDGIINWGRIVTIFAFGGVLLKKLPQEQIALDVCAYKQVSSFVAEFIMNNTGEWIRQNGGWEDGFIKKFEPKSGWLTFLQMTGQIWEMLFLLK
In words: small-molecule antagonists of Bfl-1/BH3 interaction – biochemical, TR-FRET, mouse Bfl-1, confirmation (AID 621). (Time-resolved FRET reads energy transfer from a long-lived donor to a nearby acceptor.)

Experiment [4] deals with T2, Bcl-2-related protein A1. In words: Bfl-1 binding inhibitors, SAR follow-up, biochemical, fluorescence polarization (AID 1070). A general note: In fluorescence polarisation assays a small probe gives low polarisation when free and higher when bound to something large.
The target of the next experiment is T3, Caspase-6 (Homo sapiens, UniProt P55212).
T3 sequence (P55212 whole entry): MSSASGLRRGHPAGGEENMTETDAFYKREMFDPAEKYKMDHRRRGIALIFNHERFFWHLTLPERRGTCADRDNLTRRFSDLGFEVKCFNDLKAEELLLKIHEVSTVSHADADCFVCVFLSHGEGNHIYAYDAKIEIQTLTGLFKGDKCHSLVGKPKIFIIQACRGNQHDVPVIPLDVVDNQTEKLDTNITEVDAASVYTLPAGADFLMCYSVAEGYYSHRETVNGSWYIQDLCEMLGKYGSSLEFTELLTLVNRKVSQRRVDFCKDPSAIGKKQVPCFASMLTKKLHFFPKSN
Description: inhibition of CASP6 peptide cleavage – biochemical, VEID-R110 fluorescence, cherry-pick, dose response (AID 720632).

Another experiment deals with Cytochrome P450 2C19 (Homo sapiens, UniProt P33261). Description: Cytochrome panel assay with activity outcomes. Panel member name: p450-cyp2c19 Compounds with AC50 equal or less than 10 uM are considered active. The class given is functional. The conditions noted are these: read-out: AC50.
Cytochrome P450 2C19, sequence (P33261 whole entry): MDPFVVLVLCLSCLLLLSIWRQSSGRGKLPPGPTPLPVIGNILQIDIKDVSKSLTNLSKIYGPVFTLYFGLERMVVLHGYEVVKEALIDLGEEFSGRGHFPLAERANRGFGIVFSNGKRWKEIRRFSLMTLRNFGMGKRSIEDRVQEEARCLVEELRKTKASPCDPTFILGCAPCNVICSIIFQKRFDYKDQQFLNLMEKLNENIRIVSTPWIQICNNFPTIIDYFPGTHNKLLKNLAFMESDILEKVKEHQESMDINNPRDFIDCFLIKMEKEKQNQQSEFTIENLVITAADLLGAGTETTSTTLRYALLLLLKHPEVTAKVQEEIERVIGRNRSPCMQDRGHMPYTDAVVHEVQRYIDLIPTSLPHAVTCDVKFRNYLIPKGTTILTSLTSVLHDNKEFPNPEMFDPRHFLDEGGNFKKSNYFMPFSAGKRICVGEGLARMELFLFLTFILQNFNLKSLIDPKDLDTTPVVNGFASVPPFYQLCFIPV
A further experiment addresses Cytochrome P450 2C9 (Homo sapiens, UniProt P11712).
For experiment [5], the target named is T4, Histone-lysine N-methyltransferase NSD2 (Homo sapiens, UniProt O96028).
T4 sequence (O96028 whole entry): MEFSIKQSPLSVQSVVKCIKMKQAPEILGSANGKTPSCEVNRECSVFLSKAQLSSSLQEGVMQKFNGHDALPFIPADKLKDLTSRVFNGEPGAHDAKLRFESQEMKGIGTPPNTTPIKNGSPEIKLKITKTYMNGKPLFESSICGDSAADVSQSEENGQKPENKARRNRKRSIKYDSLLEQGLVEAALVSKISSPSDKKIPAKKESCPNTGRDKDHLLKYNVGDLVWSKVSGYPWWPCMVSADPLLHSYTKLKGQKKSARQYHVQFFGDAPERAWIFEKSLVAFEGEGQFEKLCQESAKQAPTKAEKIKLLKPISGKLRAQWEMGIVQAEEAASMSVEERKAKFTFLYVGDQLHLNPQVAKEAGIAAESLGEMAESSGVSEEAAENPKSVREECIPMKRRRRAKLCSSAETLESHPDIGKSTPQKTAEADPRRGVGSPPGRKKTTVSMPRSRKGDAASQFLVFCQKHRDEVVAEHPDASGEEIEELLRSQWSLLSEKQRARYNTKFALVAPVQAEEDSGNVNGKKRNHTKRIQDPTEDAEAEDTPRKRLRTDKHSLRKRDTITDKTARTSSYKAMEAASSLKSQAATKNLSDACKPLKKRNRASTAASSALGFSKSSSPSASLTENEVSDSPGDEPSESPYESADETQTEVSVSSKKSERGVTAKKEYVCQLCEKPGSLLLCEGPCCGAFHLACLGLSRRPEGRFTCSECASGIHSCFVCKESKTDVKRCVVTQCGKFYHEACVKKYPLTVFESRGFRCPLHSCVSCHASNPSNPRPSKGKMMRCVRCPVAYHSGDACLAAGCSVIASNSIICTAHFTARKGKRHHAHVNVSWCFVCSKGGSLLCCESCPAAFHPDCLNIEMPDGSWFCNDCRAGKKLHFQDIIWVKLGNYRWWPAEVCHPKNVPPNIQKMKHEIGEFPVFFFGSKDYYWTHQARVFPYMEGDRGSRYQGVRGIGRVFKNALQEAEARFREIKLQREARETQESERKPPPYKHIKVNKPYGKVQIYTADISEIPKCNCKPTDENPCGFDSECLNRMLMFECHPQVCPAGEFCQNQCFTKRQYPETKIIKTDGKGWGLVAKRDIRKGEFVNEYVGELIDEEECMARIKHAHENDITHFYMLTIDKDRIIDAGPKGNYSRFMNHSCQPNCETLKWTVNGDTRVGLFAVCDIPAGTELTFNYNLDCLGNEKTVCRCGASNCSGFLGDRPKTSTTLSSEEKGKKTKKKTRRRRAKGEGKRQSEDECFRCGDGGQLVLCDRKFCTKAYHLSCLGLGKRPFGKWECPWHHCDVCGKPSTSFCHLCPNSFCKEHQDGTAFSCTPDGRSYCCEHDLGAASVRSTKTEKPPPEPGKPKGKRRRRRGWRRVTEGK
The class given is biochemical.

For experiment [6], the target named is Photoreceptor-specific nuclear receptor (Homo sapiens, UniProt Q9Y5X4). In words: ligands suppressing NR2E3 nuclear receptor activity – biochemical, TR-FRET, dose response (AID 463256). Type of experiment: functional.
Photoreceptor-specific nuclear receptor, sequence (Q9Y5X4 whole entry): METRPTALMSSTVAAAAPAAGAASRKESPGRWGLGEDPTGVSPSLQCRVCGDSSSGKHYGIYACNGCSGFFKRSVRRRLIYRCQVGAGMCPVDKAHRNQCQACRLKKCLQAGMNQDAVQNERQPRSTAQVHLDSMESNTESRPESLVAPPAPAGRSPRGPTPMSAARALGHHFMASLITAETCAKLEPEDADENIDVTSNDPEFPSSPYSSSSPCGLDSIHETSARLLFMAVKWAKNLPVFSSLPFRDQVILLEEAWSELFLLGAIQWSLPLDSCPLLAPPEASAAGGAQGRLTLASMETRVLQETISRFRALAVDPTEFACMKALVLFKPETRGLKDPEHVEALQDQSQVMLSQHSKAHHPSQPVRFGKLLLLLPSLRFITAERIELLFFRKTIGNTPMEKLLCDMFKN
Experiment [7] concerns the target Peroxisome proliferator-activated receptor gamma/Nuclear receptor corepressor 2 (Homo sapiens, UniProt P37231+Q9Y618). In words: Counterscreen for NR2E3 inverse agonists: TR-FRET-based biochemical high throughput dose response assay to identify inverse agonists of the interaction between peroxisome proliferator-activated receptor gamma (PPARg) and nuclear receptor co-repressor 2 (NCOR2). Type of experiment: functional.

A short description of experiment [8]: IGROV1 cell killing – plate reader, dry powder samples, PAX8 inhibitor project, dose response (AID 743043). The conditions noted are these: IGROV-1. The class given is functional, cell-based.
The nature of experiment [9]: P. falciparum Dd2 growth inhibitors, dose response, SYBR Green, cherry-picked samples (AID 1159567). Type of experiment: functional, cell-based.
A further experiment has as its target Paired box protein Pax-8 (Homo sapiens, UniProt Q06710). In words: PAX8 transcriptional activity inhibition in RMG-I – RMG-I cells, luciferase, cherry-pick, dose response (AID 687027).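 Note: luciferase reporter driven by Pax8 target thyroperoxidase promoter measured by SteadyGlo luminescence.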 Type of experiment: functional, cell-based.
Experiment [10] can be described thus: toxicity to human hepatoma HepG2 cells – cell-based, cherry-picked samples, cytotoxicity control, dose response (AID 1159577). The class given is functional.
Experiment [11] in a line: inhibitors of non-replicating M. tuberculosis, dose response, luciferase, dry powder (AID 651620). Type of experiment: functional. The following applies: Mycobacterium tuberculosis.
A short description of experiment [12]: inhibitors of non-replicating M. tuberculosis, dose response, luciferase, dry powder (AID 651619). The class given is functional. The conditions noted are these: Mycobacterium tuberculosis.
Experiment [13] can be described thus: growth inhibition of replicating M. tuberculosis, dose response, counter-screen, dry powder, IC90 (AID 651617). The conditions noted are these: Mycobacterium tuberculosis. Type of experiment: functional.
Experiment [14] is described as follows: Dd2 malaria parasite growth inhibition potency – SYBR Green, dry powder samples, dose response (AID 1159566).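 Note: potency for growth inhibition with lower SYBR green DNA signal.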 The class given is functional, cell-based.
Experiment [15] in a line: growth inhibition of PfATP4-mutant resistant parasites – NITD609-resistant line, SYBR Green, dry powder, dose response (AID 1159571).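 Note: parasites synchronized at ring stage by sorbitol before testing.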 Type of experiment: functional, cell-based.
The nature of experiment [16]: growth inhibition of yeast DHODH-expressing 3D7 parasites – SYBR Green, dry powder samples, dose response (AID 1159570).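 Note: parasite growth measured after 72 hours of compound exposure.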 The class given is functional, cell-based.

Calls of active or inactive are those of the source. Some results are limits rather than exact numbers.

Peroxisome proliferator-activated receptor gamma/Nuclear receptor corepressor 2, sequence (P37231 whole entry): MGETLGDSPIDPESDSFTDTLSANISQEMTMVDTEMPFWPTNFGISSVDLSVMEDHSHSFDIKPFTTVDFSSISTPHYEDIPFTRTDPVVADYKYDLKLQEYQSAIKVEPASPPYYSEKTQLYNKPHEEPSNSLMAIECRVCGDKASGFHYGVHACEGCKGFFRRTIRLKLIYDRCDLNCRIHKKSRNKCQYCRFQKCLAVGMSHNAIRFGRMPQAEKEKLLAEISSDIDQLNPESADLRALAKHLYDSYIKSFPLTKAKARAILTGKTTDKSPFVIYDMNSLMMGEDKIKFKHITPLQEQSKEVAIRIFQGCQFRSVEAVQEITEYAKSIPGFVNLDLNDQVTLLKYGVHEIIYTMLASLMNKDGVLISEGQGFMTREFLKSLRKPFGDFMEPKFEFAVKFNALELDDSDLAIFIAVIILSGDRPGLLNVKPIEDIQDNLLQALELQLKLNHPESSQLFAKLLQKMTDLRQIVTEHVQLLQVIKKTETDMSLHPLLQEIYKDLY
Peroxisome proliferator-activated receptor gamma/Nuclear receptor corepressor 2, sequence (Q9Y618 whole entry): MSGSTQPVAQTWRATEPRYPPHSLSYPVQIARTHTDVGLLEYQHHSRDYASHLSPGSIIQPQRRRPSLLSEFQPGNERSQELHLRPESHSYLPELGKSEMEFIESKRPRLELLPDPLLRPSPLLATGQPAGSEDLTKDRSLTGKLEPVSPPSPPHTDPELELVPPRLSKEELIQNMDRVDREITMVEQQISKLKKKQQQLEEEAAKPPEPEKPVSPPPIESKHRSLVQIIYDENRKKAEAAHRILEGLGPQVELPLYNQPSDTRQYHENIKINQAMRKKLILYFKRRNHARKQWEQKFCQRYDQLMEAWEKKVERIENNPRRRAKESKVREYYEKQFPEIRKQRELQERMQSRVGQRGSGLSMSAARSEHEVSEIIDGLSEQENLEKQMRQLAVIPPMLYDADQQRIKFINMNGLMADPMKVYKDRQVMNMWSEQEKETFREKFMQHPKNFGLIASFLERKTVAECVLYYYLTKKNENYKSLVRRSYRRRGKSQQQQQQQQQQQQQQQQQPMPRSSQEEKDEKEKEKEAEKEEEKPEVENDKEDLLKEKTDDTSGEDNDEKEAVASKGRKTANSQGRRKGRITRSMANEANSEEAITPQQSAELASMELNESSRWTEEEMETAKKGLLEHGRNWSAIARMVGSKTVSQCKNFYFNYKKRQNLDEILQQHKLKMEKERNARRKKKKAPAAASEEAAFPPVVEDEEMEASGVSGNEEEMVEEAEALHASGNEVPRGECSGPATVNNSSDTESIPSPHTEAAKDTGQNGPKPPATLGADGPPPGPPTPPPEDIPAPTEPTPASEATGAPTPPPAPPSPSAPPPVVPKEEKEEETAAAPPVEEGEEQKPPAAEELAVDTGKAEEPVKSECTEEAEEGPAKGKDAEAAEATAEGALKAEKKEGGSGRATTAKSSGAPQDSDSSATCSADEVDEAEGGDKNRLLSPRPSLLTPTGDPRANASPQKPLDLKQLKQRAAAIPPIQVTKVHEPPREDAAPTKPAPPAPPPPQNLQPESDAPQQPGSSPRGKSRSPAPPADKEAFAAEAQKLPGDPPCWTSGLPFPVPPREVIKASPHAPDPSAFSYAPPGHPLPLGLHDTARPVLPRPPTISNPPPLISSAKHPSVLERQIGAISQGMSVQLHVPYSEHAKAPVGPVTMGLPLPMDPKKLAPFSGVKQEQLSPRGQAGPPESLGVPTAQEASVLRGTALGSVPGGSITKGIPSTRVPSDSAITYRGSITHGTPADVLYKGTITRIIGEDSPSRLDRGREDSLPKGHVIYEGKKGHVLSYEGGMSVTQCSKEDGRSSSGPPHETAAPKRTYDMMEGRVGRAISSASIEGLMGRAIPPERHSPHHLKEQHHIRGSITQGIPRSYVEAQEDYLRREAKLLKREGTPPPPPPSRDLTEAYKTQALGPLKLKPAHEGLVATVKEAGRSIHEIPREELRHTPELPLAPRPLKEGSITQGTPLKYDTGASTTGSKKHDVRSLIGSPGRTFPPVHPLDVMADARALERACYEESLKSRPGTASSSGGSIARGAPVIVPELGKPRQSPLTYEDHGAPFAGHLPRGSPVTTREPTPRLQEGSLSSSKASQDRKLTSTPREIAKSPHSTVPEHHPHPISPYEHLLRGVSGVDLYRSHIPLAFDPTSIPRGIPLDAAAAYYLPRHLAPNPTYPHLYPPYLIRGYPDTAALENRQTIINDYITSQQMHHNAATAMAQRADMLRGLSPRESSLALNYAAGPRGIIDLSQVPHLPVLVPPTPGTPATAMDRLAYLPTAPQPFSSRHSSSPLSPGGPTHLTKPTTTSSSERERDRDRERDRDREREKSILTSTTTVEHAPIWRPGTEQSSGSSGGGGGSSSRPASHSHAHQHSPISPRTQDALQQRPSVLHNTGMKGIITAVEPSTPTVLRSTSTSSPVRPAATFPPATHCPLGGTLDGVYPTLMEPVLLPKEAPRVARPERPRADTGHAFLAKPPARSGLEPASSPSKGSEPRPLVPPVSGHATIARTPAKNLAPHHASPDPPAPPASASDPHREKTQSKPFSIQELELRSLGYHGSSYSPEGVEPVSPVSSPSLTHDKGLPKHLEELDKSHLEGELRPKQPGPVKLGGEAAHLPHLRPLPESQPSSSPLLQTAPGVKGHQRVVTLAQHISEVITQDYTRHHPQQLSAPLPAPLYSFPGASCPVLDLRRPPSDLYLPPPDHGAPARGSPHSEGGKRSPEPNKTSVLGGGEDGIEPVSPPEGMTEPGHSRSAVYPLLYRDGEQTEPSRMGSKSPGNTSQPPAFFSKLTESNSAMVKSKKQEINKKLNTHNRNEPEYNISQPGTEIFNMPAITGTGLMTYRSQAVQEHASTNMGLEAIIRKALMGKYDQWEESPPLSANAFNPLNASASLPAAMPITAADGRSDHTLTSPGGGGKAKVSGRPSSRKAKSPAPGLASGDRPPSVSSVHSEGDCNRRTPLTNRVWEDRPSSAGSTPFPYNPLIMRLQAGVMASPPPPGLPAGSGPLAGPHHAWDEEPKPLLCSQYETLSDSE
Cytochrome P450 2C9, sequence (P11712 whole entry): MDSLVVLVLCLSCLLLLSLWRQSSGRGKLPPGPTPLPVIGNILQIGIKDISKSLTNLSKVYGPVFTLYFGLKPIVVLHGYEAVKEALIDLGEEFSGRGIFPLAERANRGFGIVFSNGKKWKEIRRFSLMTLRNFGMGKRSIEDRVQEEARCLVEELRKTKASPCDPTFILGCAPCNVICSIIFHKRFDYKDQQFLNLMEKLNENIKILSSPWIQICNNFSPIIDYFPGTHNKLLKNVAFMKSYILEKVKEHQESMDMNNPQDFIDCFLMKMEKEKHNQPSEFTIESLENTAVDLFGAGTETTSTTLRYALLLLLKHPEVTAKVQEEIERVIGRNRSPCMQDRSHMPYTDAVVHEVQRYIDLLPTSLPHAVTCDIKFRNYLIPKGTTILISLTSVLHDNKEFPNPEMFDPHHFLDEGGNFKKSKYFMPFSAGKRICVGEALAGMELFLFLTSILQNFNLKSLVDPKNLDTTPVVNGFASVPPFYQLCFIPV
Paired box protein Pax-8, sequence (Q06710 whole entry): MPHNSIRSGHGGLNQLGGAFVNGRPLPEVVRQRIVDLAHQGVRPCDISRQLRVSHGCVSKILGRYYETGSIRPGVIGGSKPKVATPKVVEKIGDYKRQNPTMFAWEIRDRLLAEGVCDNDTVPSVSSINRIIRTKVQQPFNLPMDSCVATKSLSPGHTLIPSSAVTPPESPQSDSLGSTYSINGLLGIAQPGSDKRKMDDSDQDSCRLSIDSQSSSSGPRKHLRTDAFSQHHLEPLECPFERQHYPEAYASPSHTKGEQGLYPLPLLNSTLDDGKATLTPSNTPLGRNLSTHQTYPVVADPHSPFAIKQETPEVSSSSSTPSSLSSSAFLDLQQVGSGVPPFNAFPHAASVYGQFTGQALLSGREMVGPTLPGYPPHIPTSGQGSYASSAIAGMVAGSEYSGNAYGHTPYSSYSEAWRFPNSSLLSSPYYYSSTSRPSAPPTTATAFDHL

Broadly, the IC50 is the concentration at which inhibition is half-maximal. For the compound `Fc1ccc(-c2cnn3c(-c4cccs4)ccnc23)cc1`, the EC50 in experiment [1] is > 67.5 µM (inactive). In addition, the IC50 in experiment [2] was > 67.5 µM (inactive).

Consider `COc1ccc2nc(O)c(-c3nnn(-c4ccc(Cl)nc4)n3)cc2c1`, for which the IC50 on Bcl-2-related protein A1 [3] and on Bcl-2-related protein A1 [4] was > 100 µM (not active) in each case.

A word on the AC50: it is the midpoint of the concentration-response curve, whichever way the signal moves. For the compound `Nc1cc(S(=O)(=O)O)cc2ccc(S(=O)(=O)O)cc12`, the AC50 was 45.1 µM (active) at Caspase-6, 7.94 µM (inconclusive) at Cytochrome P450 2C19, 7.94 µM (inconclusive) on Cytochrome P450 2C9 and > 20 µM (inactive) in experiment [5].

`Cc1ccc(-n2nnc(-c3cccnc3)n2)cc1`: the IC50 on Bcl-2-related protein A1 [3] and on Bcl-2-related protein A1 [4] was > 100 µM (not active) throughout.

As to `O=C(O)c1ccccc1SCC(=O)N1CCc2ccccc21`, the EC50 in experiment [1] is > 67.5 µM (inactive). In experiment [2], the IC50 was > 67.5 µM (inactive).

In the case of `O=C(CSc1nnc(-c2cccs2)n1-c1ccccc1)Nc1ccccc1`, the IC50 was 5.52 µM (active) in experiment [6] and 11.8 µM (not active) in experiment [7].

On to `Fc1ccc(-n2nnc(-c3cc4ccccc4nc3Cl)n2)cc1`, for which the IC50 against Bcl-2-related protein A1 [3] and on Bcl-2-related protein A1 [4] was > 100 µM (not active) in each case.

Take `C[C@H](CO)N1C[C@H](C)[C@@H](CN(C)Cc2ccc(Cl)c(Cl)c2)Oc2ccc(NC(=O)Nc3ccc(C(F)(F)F)cc3)cc2CC1=O`: the AC50 is 54.3 µM (active) in experiment [8], 2.62 µM (active) in experiment [9], 6.35 µM (active) at Paired box protein Pax-8 and 11.8 µM (active) in experiment [10].

Usually IC90 stands for the concentration at which the effect reaches the 90% level. For `Fc1ccc(CSc2nnc(-c3ccccc3)o2)cc1`, the figures for the IC90 in experiment [11], in [12] and in experiment [13] were 4 µM (active), 4 µM (active) and 250 µM (active), respectively.

`C/C=C/c1ccc2c(c1)[C@H]1[C@H](CCN1C(=O)c1ccc(F)cc1)[C@H](CO)N2`: the concentration at half-maximal activity (AC50) was 2.79 µM (active) in [9], 2.01 µM (active) in [14], 2 µM (active) in experiment [15] and 1.96 µM (active) in experiment [16].

Regarding `CCN(C[C@@H]1N[C@@H](CO)[C@H]1c1ccc(-c2ccc(F)cc2)cc1)C(=O)CN(C)C`, the figures for the AC50 in experiment [9] and in [10] were 2.05 µM (active) and 8.36 µM (active), respectively.
